{
  "source": "patent US9688857B2",
  "about": "“Fluorescent probe” (THE UNIVERSITY OF TOKYO, priority 2011, dated 2017)",
  "key": {"[1]": {"test": "Optical characteristics, Table 3", "type": "physicochemical", "conditions": "for λmax, fl: 0.1 M phosphate buffer (pH 9) containing 1% DMSO; for Φfl: 0.1 M phosphate buffer (pH 9), 1% DMSO, standard 2-Me TokyoMagenta (0.42); for λmax, abs: 0.1 M phosphate buffer containing 1% DMSO", "method": "The measurement was performed in a 0.1 M phosphate buffer (pH 9) containing 1% DMSO. pKa was obtained from the absorbance measured in a phosphate buffer (pH 9) by single-phase or two-phase curve fitting. The quantum yield was obtained by using the quantum yield of 2-Me TokyoMagenta (0.42) in a 0.1 M phosphate buffer (pH 9) as the standard."}, "[2]": {"test": "Comparison of absorption wavelengths at pH 3 and 9 in sodium phosphate buffer (Table 1)", "type": "physicochemical", "parameters": "λmax: unit not given beside the values", "conditions": "for λmax: sodium phosphate buffer", "protocol": "The results of comparison of the absorption wavelengths of 2-Me TokyoMagenta and 2-Me TokyoGreen (9-(2′-methylphenyl)-xanthen-3-one) having oxygen atom at the 10-position of the xanthene ring are shown in FIG. 2 and Table 1. The measurement was performed at pH 3 and 9 in a sodium phosphate buffer."}, "[3]": {"test": "Optical characteristics, Table 2", "type": "physicochemical", "conditions": "phosphate buffer (pH 9)", "protocol": "The measurement was performed at pH 9."}, "physchem": {"test": "physchem", "type": "physicochemical", "method": "In the table, the items attached with the letter a were measured in a phosphate buffer (pH 9), and the item attached with the letter b was measured in a 0.1 M phosphate buffer containing 1% DMSO.\nThe measurement was performed in a 0.1 M phosphate buffer (pH 9) containing 1% DMSO. pKa was obtained from the absorbance measured in a phosphate buffer (pH 9) by single-phase or two-phase curve fitting."}, "[4]": {"test": "Absorption and fluorescence profiles at various pH values (Example 2)", "type": "physicochemical", "conditions": "for maximal absorption wavelength: 1 μM in 0.1 M phosphate buffer, 1% DMSO", "protocol": "The measurement was performed with changing pH. In this specification, Me means methyl group. […] The measurement was performed by using a 1 μM solution of 2-Me TokyoMagenta dissolved in a 0.1 M phosphate buffer containing 1% dimethyl sulfoxide (DMSO).\nAbsorption and fluorescence profiles of 2-Me TokyoMagenta obtained in the step (g) mentioned above were measured at various pH values. […] It is considered that 2-Me TokyoMagenta exists in an equilibrated state of the non-dissociated form (neutral form) and the dissociated form (anion form) mentioned below depending on pH."}, "[5]": {"test": "Fluorescence profiles at various pH values, excitation 471 nm (Example 6)", "type": "physicochemical", "conditions": "shift of pH from the acidic side to the alkaline side", "protocol": "The measurement was performed with changing pH (excitation wavelength, 471 nm) by using a 1 μM solution of 2-Me TokyoMagenta dissolved in a 0.1 M phosphate buffer containing 1% dimethyl sulfoxide (DMSO).\nAbsorption and fluorescence profiles of 2-Me TokyoMagenta obtained in the step (g) mentioned above were measured at various pH values (excitation wavelength, 471 nm). It was confirmed that, with the shift of pH from the acidic side to the alkaline side, fluorescence intensity decreased around 590 nm, and fluorescence intensity increased around 560 nm."}, "β-galactosidase [6]": {"target": "T1, β-galactosidase (Escherichia coli, UniProt P00722)", "test": "Hydrolysis reaction by β-galactosidase monitored by fluorescence intensity over time", "type": "biochemical", "conditions": "1 μM probe, 37° C., 0.1 M sodium phosphate buffer (pH 7.4), 0.1% DMSO, one unit β-galactosidase", "description": "As a control, 2-Me-4-OMe TokyoGreen βgal was used, which had been already widely used as a fluorescent probe for β-galactosidase measurement.\nAdvance of the hydrolysis reaction of 2-Me TokyoMagenta βgal by β-galactosidase was monitored by periodically measuring fluorescence intensity. As a control, 2-Me-4-OMe TokyoGreen βgal (9-(4′-methoxy-2′-methylphenyl)-6-(β-D-galactopyranosyloxy)-xanthen-3-one), which had been already widely used as a fluorescent probe for β-galactosidase measurement, was used. The reaction was performed at 37° C. in a 0.1 M sodium phosphate buffer (pH 7.4) containing 1 μM 2-Me TokyoMagenta βgal or 2-Me-4-OMe TokyoGreen βgal and 0.1% dimethyl sulfoxide. One unit (1.3 μg) of β-galactosidase was added 40 seconds afterward."}, "β-galactosidase [7]": {"target": "T1, β-galactosidase", "test": "Absorption spectra before and after treatment with β-galactosidase", "type": "biochemical", "conditions": "0.1 M sodium phosphate buffer (pH 7.0), 0.1% DMSO", "protocol": "The characteristics of 2-Me TokyoMagenta βgal, which was designed as a fluorescent probe for β-galactosidase measurement, as an enzyme substrate and a fluorescent probe were evaluated. There are shown absorption spectra (FIG. 3, upper left graph) and fluorescence spectra (FIG. 3, upper right graph (excitation wavelength, 582 nm) and FIG. 3, lower left graph (excitation wavelength, 448 nm)) of 2-Me TokyoMagenta βgal measured before and after a treatment with β-galactosidase (6 units) in a 0.1 M sodium phosphate buffer (pH 7.0) containing 0.1% dimethyl sulfoxide. The λmax values measured before and after the reaction were 448 nm (before the reaction), and 582 nm (after the reaction), respectively."}, "β-galactosidase [8]": {"target": "T1, β-galactosidase", "test": "Measurement of intracellular β-galactosidase in HEK293 cells (lacZ(+) or lacZ(−))", "type": "cell-based", "parameters": "expressed in transfected cells; host or cells: HEK293 lacZ(+)", "conditions": "10 μM, 37° C., 30 minutes, excitation 580 nm, detection 600 to 620 nm", "protocol": "The bars shown in the photographs indicate 30 μm.\n2-Me TokyoMagenta βgal was introduced into cells, and it was confirmed that it functioned as a fluorescent probe for β-galactosidase measurement. The HEK293 cells (lacZ(+) or lacZ(−)) were incubated with 10 μM 2-Me TokyoMagenta βgal at 37° C. for 30 minutes in the Dulbecco's modified Eagle medium (DMEM) containing 0.1% dimethyl sulfoxide, and fluorescence spectrum was measured with an excitation wavelength of 580 nm and detection wavelength of 600 to 620 nm."}},
  "data": [
    {"smiles": "Cc1ccccc1C1=C2C=CC(=O)C(Cl)=C2[Si](C)(C)c2c1ccc(O)c2Cl", "note": "[2-Me DCTM]", "values": [
      {"measurement": "λmax, fl", "setting": "[1]", "result": 607, "unit": "nm"},
      {"measurement": "Φfl", "setting": "[1]", "result": 0.48},
      {"measurement": "λmax, abs", "setting": "[1]; pH 3", "result": 477, "unit": "nm"},
      {"measurement": "λmax, abs", "setting": "[1]; pH 9", "result": 595, "unit": "nm"}
    ]},
    {"smiles": "Cc1ccccc1-c1c2ccc(=O)cc-2oc2ccccc12", "note": "[2-Me TokyoGreen, 9-(2′-methylphenyl)-xanthen-3-one, reference compound]", "values": [
      {"measurement": "λmax", "setting": "[2]; Anion form (pH 9)", "result": 492},
      {"measurement": "λmax", "setting": "[2]; Neutral form (pH 3)", "result": 439}
    ]},
    {"smiles": "C[Si]1(C)C2=CC(=O)C=CC2=C(c2ccccc2C(=O)O)c2ccc(O)cc21", "note": "[2-COOH TM]", "values": [
      {"measurement": "λmax, fl", "setting": "[1]", "result": 598, "unit": "nm"},
      {"measurement": "Φfl", "setting": "[1]", "result": 0.38},
      {"measurement": "λmax, abs", "setting": "[1]; pH 9", "result": 582, "unit": "nm"}
    ]},
    {"smiles": "Cc1ccccc1C1=C2C=CC(=O)C(F)=C2[Si](C)(C)c2c1ccc(O)c2F", "note": "[2-Me DFTM]", "values": [
      {"measurement": "λmax, fl", "setting": "[1]", "result": 598, "unit": "nm"},
      {"measurement": "Φfl", "setting": "[1]", "result": 0.57},
      {"measurement": "λmax, abs", "setting": "[1]; pH 3", "result": 465, "unit": "nm"},
      {"measurement": "λmax, abs", "setting": "[1]; pH 9", "result": 583, "unit": "nm"}
    ]},
    {"smiles": "C[Si]1(C)C2=C(Cl)C(=O)C=CC2=C(c2ccccc2C(=O)O)c2ccc(O)c(Cl)c21", "note": "[2-COOH DCTM]", "values": [
      {"measurement": "λmax, fl", "setting": "[1]", "result": 607, "unit": "nm"},
      {"measurement": "Φfl", "setting": "[1]", "result": 0.48},
      {"measurement": "λmax, abs", "setting": "[1]; pH 9", "result": 591, "unit": "nm"}
    ]},
    {"smiles": "Cc1ccccc1C1=C2C=CC(=O)C=C2[Si](C)(C)c2cc(O)ccc21", "note": "[2-Me TokyoMagenta]", "values": [
      {"measurement": "λmax, fl", "setting": "[1]", "result": 598, "unit": "nm"},
      {"measurement": "Φfl", "setting": "[1]", "result": 0.42},
      {"measurement": "λmax, abs", "setting": "[1]; pH 3", "result": 472, "unit": "nm"},
      {"measurement": "λmax, abs", "setting": "[1]; pH 9", "result": 582, "unit": "nm"},
      {"measurement": "Φfl", "setting": "[3]", "result": 0.42},
      {"measurement": "λabs", "setting": "[3]", "result": 582, "unit": "nm"},
      {"measurement": "λfl", "setting": "[3]", "result": 598, "unit": "nm"},
      {"measurement": "pKa", "setting": "physchem", "result": 6.8},
      {"measurement": "maximal absorption wavelength", "setting": "[4]; acidic side of pH", "result": "around 471 nm"},
      {"measurement": "maximal absorption wavelength", "setting": "[4]; alkaline side of pH", "result": "around 582 nm"},
      {"measurement": "Φfl", "setting": "[4]; anion form", "result": 0.42},
      {"measurement": "ε", "setting": "[4]; anion form", "result": 110000},
      {"measurement": "Φfl", "setting": "[4]; neutral form", "result": 0.10},
      {"measurement": "ε", "setting": "[4]; neutral form", "result": 29000},
      {"measurement": "fluorescence emission with excitation light of 550 nm", "setting": "[4]; shift of pH from the acidic side to the alkaline side", "result": "significantly increased"},
      {"measurement": "λmax", "setting": "[2]; Anion form (pH 9)", "result": 582},
      {"measurement": "λmax", "setting": "[2]; Neutral form (pH 3)", "result": 471},
      {"measurement": "absorption wavelength change with change of pH", "setting": "[2]; compared with 2-Me TokyoGreen, pH 3 and 9", "result": "larger absorption wavelength change"},
      {"measurement": "fluorescence intensity around 560 nm", "setting": "[5]", "result": "increased"},
      {"measurement": "fluorescence intensity around 590 nm", "setting": "[5]", "result": "decreased"}
    ]},
    {"smiles": "CC[Si]1(CC)C2=CC(=O)C=CC2=C(c2ccccc2C)c2ccc(O)cc21", "note": "[2-Me DiEtTM]", "values": [
      {"measurement": "Φfl", "setting": "[3]", "result": 0.48},
      {"measurement": "λabs", "setting": "[3]", "result": 582, "unit": "nm"},
      {"measurement": "λfl", "setting": "[3]", "result": 601, "unit": "nm"}
    ]},
    {"smiles": "COc1ccc(-c2c3ccc(=O)cc-3oc3cc(O[C@@H]4O[C@H](CO)[C@H](O)[C@H](O)[C@H]4O)ccc23)c(C)c1", "note": "[2-Me-4-OMe TokyoGreen βgal, 9-(4′-methoxy-2′-methylphenyl)-6-(β-D-galactopyranosyloxy)-xanthen-3-one, reference compound]", "values": [
      {"measurement": "fluorescence response on hydrolysis by β-galactosidase", "setting": "β-galactosidase [6]", "result": "fluorescence was generated by cancellation of PET"}
    ]},
    {"smiles": "Cc1ccccc1C1=C2C=CC(=O)C=C2[Si](C)(C)c2cc(O[C@@H]3O[C@H](CO)[C@H](O)[C@H](O)[C@H]3O)ccc21", "note": "[2-Me TokyoMagenta βgal]", "values": [
      {"measurement": "fluorescence response on hydrolysis by β-galactosidase", "setting": "β-galactosidase [6]", "result": "increase of fluorescence intensity due to red shift"},
      {"measurement": "λmax after the reaction", "setting": "β-galactosidase [7]; after β-galactosidase (6 units)", "result": 582, "unit": "nm"},
      {"measurement": "λmax before the reaction", "setting": "β-galactosidase [7]; before β-galactosidase (6 units)", "result": 448, "unit": "nm"},
      {"measurement": "fluorescence in cells", "setting": "β-galactosidase [8]; HEK293 lacZ(+) cells", "result": "fluorescence emitted by the fluorescent probe hydrolyzed by β-galactosidase was confirmed"},
      {"measurement": "fluorescence in cells", "setting": "β-galactosidase [8]; HEK293 lacZ(−) cells", "result": "fluorescence was not observed"}
    ]},
    {"smiles": "C[Si]1(C)C2=C(F)C(=O)C=CC2=C(c2ccccc2C(=O)O)c2ccc(O)c(F)c21", "note": "[2-COOH DFTM]", "values": [
      {"measurement": "λmax, fl", "setting": "[1]", "result": 596, "unit": "nm"},
      {"measurement": "Φfl", "setting": "[1]", "result": 0.54},
      {"measurement": "λmax, abs", "setting": "[1]; pH 9", "result": 581, "unit": "nm"}
    ]}
  ]
}
